# Laboratory results: patent US6322771A, “Induction of pharmacological stress with adenosine receptor agonists” (priority 1999, dated 2001)
# Like-named read-outs stand apart in the source and are kept apart here.
# What was measured:
# [1] = tested on: adult mongrel dogs; settings: for LCX coronary flow: baseline 42 ml/min
# [2] = tested on: patients; settings: 3,911 patients; cited from earlier work
# [3] = tested on: patients; settings: 3,715 patients; cited from earlier work
# [4] = tested on: A1 adenosine receptors; settings: A1 versus A2A adenosine receptors; cited from earlier work
# [5] = tested on: dog with critical LAD stenosis
# Experimental: Following a 15 minute baseline stabilization period, the LAD snare occluder was tightened to produce a critical LAD stenosis. A critical stenosis was defined as one that produced no change in resting coronary flow, however coronary flow reserve was completely abolished. […] Five minutes later, an in vivo image was acquired and the animal was then immediately killed to prevent ^99m Tc-N-NOET redistribution. The heart was removed and sliced into 4 rings from apex to base. The heart slices were placed on a cardboard sheet, covered with plastic wrap, and ex vivo imaging of the heart slices was performed directly on the collimator of a conventional planar gamma camera. Image background subtraction was performed on the in vivo image using standard nuclear medicine software developed for this purpose. Defect magnitude was expressed as an LAD/LCX count ratio between counts in LAD and LCX regions of interest drawn on the in vivo and ex vivo heart images.
# [6] = tested on: patients; settings: 9,256 patients; cited from earlier work
smiles,measurement,setting,value
"CCNC(=O)[C@H]1O[C@@H](n2cnc3c(N)nc(C#CCC4CCC(COC(C)=O)CC4)nc32)[C@H](O)[C@@H]1O (stereo partly drawn) [JMR-193e, [4-(3-{9[(4S,5S,2R,3R)-5-(N-ethylcarbamoyl)-3,4-dihydroxyoxolan-2-yl]-6-aminopurin-2-yl}prop-2-ynyl)cyclohexyl]methyl acetate]",LCX coronary flow,[1]; 0.05 μg/kg/min x 10 min i.v. infusion,66 mL/min
same,LCX coronary flow,[1]; 0.1 μg/kg/min x 10 min i.v. infusion,75 mL/min
same,LCX coronary flow,[1]; 0.2 μg/kg/min x 10 min i.v. infusion,124 mL/min
same,LCX coronary flow,[1]; 0.3 μg/kg/min x 10 min i.v. infusion,153 mL/min
same,LCX coronary flow,[1]; 0.4 μg/kg/min x 10 min i.v. infusion,140 mL/min
same,time flow remained elevated more than 2x normal,[1]; bolus 0.3 μg/kg,3 to 4 min
same,time of maximal LCX flow post-injection,[1]; bolus 0.3 μg/kg,2.3 min
same,LCX flow,"[1]; bolus 0.3 μg/kg, from 41 ml/min",140 mL/min
same,pharmacodynamic t1/2,[1]; return of hemodynamics to baseline after terminating the infusion,12 ± 2 min
OCCN(CCO)c1nc(N2CCCCC2)c2nc(N(CCO)CCO)nc(N3CCCCC3)c2n1 [dipyridamole],ST-segment changes on ECG,[2],8%
same,headaches,[2],12%
same,fall of mean systolic blood pressure,[3],14 mm Hg
same,patients with a >20% drop in systolic blood pressure,[3],11%
"Nc1nc(Cl)nc2c1ncn2[C@@H]1O[C@H](CO)[C@@H](O)[C@H]1O [Cl-Ado, 2-chloroadenosine]",receptor subtype preference as activator,[4],more potent activator of A1 adenosine receptors than of A2A adenosine receptors
CCNC(=O)[C@H]1O[C@@H](n2cnc3c(N)nc(C#CC[C@H]4CC[C@H](C(=O)OC)CC4)nc32)[C@H](O)[C@@H]1O [DWH-146e],increase of coronary flow in the normal LCX coronary artery,[5]; 0.3 μg/kg/min i.v. infusion,~5 fold
same,in vivo and ex vivo 99mTc-N-NOET images,[5]; critical LAD stenosis,readily detectable large anteroseptal perfusion defects
same,change in mean arterial pressure,"[5]; dog, in vivo",no change
same,Heart Rate,"[5]; peak, 0.3 μg/kg/min i.v. infusion, baseline 109, stenosis 123",143 BPM
same,dP/dt,"[5]; peak, 0.3 μg/kg/min i.v. infusion, baseline 2906, stenosis 2713",2606 mm Hg · sec-1
same,LCX coronary flow,"[5]; peak, 0.3 μg/kg/min i.v. infusion, normal artery, baseline 39, stenosis 38",185 mL/min
same,LAD Coronary Flow,"[5]; peak, 0.3 μg/kg/min i.v. infusion, stenosed artery, baseline 39, stenosis 37",42 mL/min
Nc1ncnc2c1ncn2[C@@H]1O[C@H](CO)[C@@H](O)[C@H]1O [adenosine],A-V conduction block,[6],8%
same,ECG changes,[6],9%
same,chest pain,[6],35%
same,flushing,[6],37%
same,headache,[6],14%
same,patients with adverse side effects,[6],82%
same,shortness of breath or dyspnea,[6],35%
same,LCX flow,[1]; i.v. 250 μg/kg/min x 3 min,139 mL/min
same,arterial pressure,"[1]; i.v. 250 μg/kg/min x 3 min, from 109 mm Hg",80 mm Hg
